Measured values as given in the supplement of paper PMC10307832.

What was measured:
Assay in all cases: relative viability (nuclei count vs DMSO), 5 days (fraction); higher = more cells survive
LOU-NH91 = system: LOU-NH91
Outline: (§1)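 Lung cancer cell lines were seeded in 1536-well plates and dosed by pin tool the next day, with either a single drug or a fixed anchor-drug dose combined with five library-drug doses (not always all listed) spaced in √10 steps. Five days later, one step fixed the cells and stained their nuclei (final 0.05% Triton X-100, 1% formaldehyde, 1 ug/ml Hoechst), and nuclei were counted on 4× images. Relative viability is the nuclei count in treated wells divided by the count in vehicle wells, and each value is the median of duplicate plates.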

NCI-H1650 = system: NCI-H1650
Outline: as §1

COR-L 105 = system: COR-L 105
Outline: as §1

NCI-H441 = system: NCI-H441
Outline: as §1

PC-14 = system: PC-14
Outline: as §1

HARA = system: HARA
Outline: as §1

NCI-H3122 = system: NCI-H3122
Outline: as §1

BEN = system: BEN
Outline: as §1

CAL-12T = system: CAL-12T
Outline: as §1

EKVX = system: EKVX
Outline: as §1

NCI-H2170 = system: NCI-H2170
Outline: as §1

NCI-H727 = system: NCI-H727
Outline: as §1

NCI-H2009 = system: NCI-H2009
Outline: as §1

ABC-1 = system: ABC-1
Outline: as §1

NCI-H661 = system: NCI-H661
Outline: as §1

NCI-H1437 = system: NCI-H1437
Outline: as §1

NCI-H460 = system: NCI-H460
Outline: as §1

LK-2 = system: LK-2
Outline: as §1

NCI-H1666 = system: NCI-H1666
Outline: as §1

SW 900 = system: SW 900
Outline: as §1

HCC-366 = system: HCC-366
Outline: as §1

201T = system: 201T
Outline: as §1

`Nc1ccn([C@@H]2O[C@H](CO)[C@@H](O)[C@@H]2O)c(=O)n1` [Cytarabine] + COc1cccc2cc(-c3nc([C@H]4CC[C@H](C(=O)O)CC4)n4ncnc(N)c34)[nH]c12 [OSI-027] (partner 0.5 µM) was tested, and the relative viability (LOU-NH91; first compound 0.005 µM) was 0.664, the relative viability (LOU-NH91; first compound 0.01581 µM) was 0.739 and the relative viability (LOU-NH91; first compound 0.05 µM) was 0.597. It also gave a relative viability (LOU-NH91; first compound 0.1581 µM) of 0.486, a relative viability (LOU-NH91; first compound 0.5 µM) of 0.585 and a relative viability (NCI-H1650; first compound 0.005 µM) of 0.44. The relative viability (NCI-H1650; first compound 0.01581 µM) was 0.507, the relative viability (NCI-H1650; first compound 0.05 µM) was 0.354 and the relative viability (NCI-H1650; first compound 0.1581 µM) was 0.311. It also gave a relative viability (NCI-H1650; first compound 0.5 µM) of 0.259, a relative viability (COR-L 105; first compound 0.005 µM) of 0.601 and a relative viability (COR-L 105; first compound 0.01581 µM) of 0.587. The relative viability (COR-L 105; first compound 0.05 µM) was 0.586, the relative viability (COR-L 105; first compound 0.1581 µM) was 0.354 and the relative viability (COR-L 105; first compound 0.5 µM) was 0.224. The relative viability (NCI-H441; first compound 0.005 µM) was 0.629, the relative viability (NCI-H441; first compound 0.01581 µM) was 0.638 and the relative viability (NCI-H441; first compound 0.05 µM) was 0.617. It also gave a relative viability (NCI-H441; first compound 0.1581 µM) of 0.422, a relative viability (NCI-H441; first compound 0.5 µM) of 0.291 and a relative viability (PC-14; first compound 0.005 µM) of 0.691. For the same compound, the relative viability (PC-14; first compound 0.01581 µM) was 0.455, the relative viability (PC-14; first compound 0.05 µM) was 0.71 and the relative viability (PC-14; first compound 0.1581 µM) was 0.166. The relative viability (PC-14; first compound 0.5 µM) was 0.115, the relative viability (HARA; first compound 0.005 µM) was 0.438 and the relative viability (HARA; first compound 0.01581 µM) was 0.236. For the same compound, the relative viability (HARA; first compound 0.05 µM) was 0.149, the relative viability (HARA; first compound 0.1581 µM) was 0.107 and the relative viability (HARA; first compound 0.5 µM) was 0.101. It also gave a relative viability (NCI-H3122; first compound 0.005 µM) of 0.953, a relative viability (NCI-H3122; first compound 0.01581 µM) of 0.873 and a relative viability (NCI-H3122; first compound 0.05 µM) of 0.811. It also gave a relative viability (NCI-H3122; first compound 0.1581 µM) of 0.461, a relative viability (NCI-H3122; first compound 0.5 µM) of 0.125 and a relative viability (BEN; first compound 0.005 µM) of 0.5. It also gave a relative viability (BEN; first compound 0.01581 µM) of 0.315, a relative viability (BEN; first compound 0.05 µM) of 0.309 and a relative viability (BEN; first compound 0.1581 µM) of 0.263. It also gave a relative viability (BEN; first compound 0.5 µM) of 0.217, a relative viability (CAL-12T; first compound 0.005 µM) of 0.697 and a relative viability (CAL-12T; first compound 0.01581 µM) of 0.507. It also gave a relative viability (CAL-12T; first compound 0.05 µM) of 0.524, a relative viability (CAL-12T; first compound 0.1581 µM) of 0.233 and a relative viability (CAL-12T; first compound 0.5 µM) of 0.197. For the same compound, the relative viability (EKVX; first compound 0.005 µM) was 0.573, the relative viability (EKVX; first compound 0.01581 µM) was 0.499 and the relative viability (EKVX; first compound 0.05 µM) was 0.635. It also gave a relative viability (EKVX; first compound 0.1581 µM) of 0.37, a relative viability (EKVX; first compound 0.5 µM) of 0.22 and a relative viability (NCI-H2170; first compound 0.005 µM) of 0.543. It also gave a relative viability (NCI-H2170; first compound 0.01581 µM) of 0.513, a relative viability (NCI-H2170; first compound 0.05 µM) of 0.387 and a relative viability (NCI-H2170; first compound 0.1581 µM) of 0.303. For the same compound, the relative viability (NCI-H2170; first compound 0.5 µM) was 0.208, the relative viability (NCI-H727; first compound 0.005 µM) was 0.589 and the relative viability (NCI-H727; first compound 0.01581 µM) was 0.558. For the same compound, the relative viability (NCI-H727; first compound 0.05 µM) was 0.491, the relative viability (NCI-H727; first compound 0.1581 µM) was 0.38 and the relative viability (NCI-H727; first compound 0.5 µM) was 0.347. The relative viability (NCI-H2009; first compound 0.005 µM) was 0.656, the relative viability (NCI-H2009; first compound 0.01581 µM) was 0.642 and the relative viability (NCI-H2009; first compound 0.05 µM) was 0.621. For the same compound, the relative viability (NCI-H2009; first compound 0.1581 µM) was 0.454, the relative viability (NCI-H2009; first compound 0.5 µM) was 0.29 and the relative viability (ABC-1; first compound 0.005 µM) was 0.41. The relative viability (ABC-1; first compound 0.01581 µM) was 0.458, the relative viability (ABC-1; first compound 0.05 µM) was 0.463 and the relative viability (ABC-1; first compound 0.1581 µM) was 0.379. It also gave a relative viability (ABC-1; first compound 0.5 µM) of 0.259, a relative viability (NCI-H661; first compound 0.005 µM) of 0.559 and a relative viability (NCI-H661; first compound 0.01581 µM) of 0.617. It also gave a relative viability (NCI-H661; first compound 0.05 µM) of 0.545, a relative viability (NCI-H661; first compound 0.1581 µM) of 0.413 and a relative viability (NCI-H661; first compound 0.5 µM) of 0.363. For the same compound, the relative viability (NCI-H1437; first compound 0.005 µM) was 0.797, the relative viability (NCI-H1437; first compound 0.01581 µM) was 0.584 and the relative viability (NCI-H1437; first compound 0.05 µM) was 0.541. It also gave a relative viability (NCI-H1437; first compound 0.1581 µM) of 0.233, a relative viability (NCI-H1437; first compound 0.5 µM) of 0.211 and a relative viability (NCI-H460; first compound 0.005 µM) of 0.384. It also gave a relative viability (NCI-H460; first compound 0.01581 µM) of 0.486, a relative viability (NCI-H460; first compound 0.05 µM) of 0.301 and a relative viability (NCI-H460; first compound 0.1581 µM) of 0.055. It also gave a relative viability (NCI-H460; first compound 0.5 µM) of 0.0359, a relative viability (LK-2; first compound 0.005 µM) of 0.194 and a relative viability (LK-2; first compound 0.01581 µM) of 0.175. It also gave a relative viability (LK-2; first compound 0.05 µM) of 0.205, a relative viability (LK-2; first compound 0.1581 µM) of 0.156 and a relative viability (LK-2; first compound 0.5 µM) of 0.154. For the same compound, the relative viability (NCI-H1666; first compound 0.005 µM) was 0.81, the relative viability (NCI-H1666; first compound 0.01581 µM) was 0.729 and the relative viability (NCI-H1666; first compound 0.05 µM) was 0.798. For the same compound, the relative viability (NCI-H1666; first compound 0.1581 µM) was 0.455, the relative viability (NCI-H1666; first compound 0.5 µM) was 0.511 and the relative viability (SW 900; first compound 0.005 µM) was 0.396. For the same compound, the relative viability (SW 900; first compound 0.01581 µM) was 0.34, the relative viability (SW 900; first compound 0.05 µM) was 0.335 and the relative viability (SW 900; first compound 0.1581 µM) was 0.145. It also gave a relative viability (SW 900; first compound 0.5 µM) of 0.136, a relative viability (HCC-366; first compound 0.005 µM) of 0.823 and a relative viability (HCC-366; first compound 0.01581 µM) of 0.61. It also gave a relative viability (HCC-366; first compound 0.05 µM) of 0.558, a relative viability (HCC-366; first compound 0.1581 µM) of 0.213 and a relative viability (HCC-366; first compound 0.5 µM) of 0.06. The relative viability (201T; first compound 0.005 µM) was 0.711, the relative viability (201T; first compound 0.01581 µM) was 0.782 and the relative viability (201T; first compound 0.05 µM) was 0.562. For the same compound, the relative viability (201T; first compound 0.1581 µM) was 0.382 and the relative viability (201T; first compound 0.5 µM) was 0.272.
